The target of test [1] is D(1A) dopamine receptor (Homo sapiens, UniProt P21728). Format: functional, cell-based.
The target of test [2] is T1, Androgen receptor (Rattus norvegicus, UniProt P15207).
T1 sequence (P15207 whole entry): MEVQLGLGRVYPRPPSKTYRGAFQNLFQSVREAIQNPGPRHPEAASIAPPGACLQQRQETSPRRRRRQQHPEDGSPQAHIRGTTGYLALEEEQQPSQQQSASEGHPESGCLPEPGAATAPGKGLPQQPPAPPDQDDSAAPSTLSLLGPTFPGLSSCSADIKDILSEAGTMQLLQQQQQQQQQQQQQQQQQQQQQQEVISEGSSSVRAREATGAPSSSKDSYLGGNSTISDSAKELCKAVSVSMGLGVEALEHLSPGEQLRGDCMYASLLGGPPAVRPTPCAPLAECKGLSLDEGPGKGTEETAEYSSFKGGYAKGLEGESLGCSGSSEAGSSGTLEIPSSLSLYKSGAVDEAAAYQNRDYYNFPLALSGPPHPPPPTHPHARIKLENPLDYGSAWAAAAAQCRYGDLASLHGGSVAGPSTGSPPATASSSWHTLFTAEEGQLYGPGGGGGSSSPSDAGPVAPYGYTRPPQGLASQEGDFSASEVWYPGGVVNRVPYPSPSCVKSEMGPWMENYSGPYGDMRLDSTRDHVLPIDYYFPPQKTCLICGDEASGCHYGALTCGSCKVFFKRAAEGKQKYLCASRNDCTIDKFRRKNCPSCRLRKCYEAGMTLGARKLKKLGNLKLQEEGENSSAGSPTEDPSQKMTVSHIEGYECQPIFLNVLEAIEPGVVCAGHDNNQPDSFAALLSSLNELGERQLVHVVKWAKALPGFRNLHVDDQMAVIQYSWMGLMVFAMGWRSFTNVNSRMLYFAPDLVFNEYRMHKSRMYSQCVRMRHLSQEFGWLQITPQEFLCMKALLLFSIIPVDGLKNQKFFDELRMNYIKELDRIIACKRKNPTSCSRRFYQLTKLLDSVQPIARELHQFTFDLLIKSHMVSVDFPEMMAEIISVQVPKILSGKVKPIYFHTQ
The test is classed as functional.

Test [3] concerns the target Synaptic vesicular amine transporter (Rattus norvegicus, UniProt Q01827). The test is classed as functional.
Test [4] deals with T2, Thromboxane A2 receptor (Homo sapiens, UniProt P21731).
T2 sequence (P21731 whole entry): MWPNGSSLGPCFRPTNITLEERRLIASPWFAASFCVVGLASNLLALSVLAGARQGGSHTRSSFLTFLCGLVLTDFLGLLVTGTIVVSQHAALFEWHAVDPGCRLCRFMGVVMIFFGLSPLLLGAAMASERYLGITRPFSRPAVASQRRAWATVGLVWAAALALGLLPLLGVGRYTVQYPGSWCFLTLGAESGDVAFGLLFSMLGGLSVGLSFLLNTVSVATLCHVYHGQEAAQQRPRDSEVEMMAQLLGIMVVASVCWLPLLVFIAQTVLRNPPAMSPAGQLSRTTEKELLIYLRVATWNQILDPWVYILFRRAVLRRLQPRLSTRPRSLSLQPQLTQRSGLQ
Format: functional.

In test [5] the target is 5-hydroxytryptamine receptor 2B (Homo sapiens, UniProt P41595).
Test [6] addresses Histamine H2 receptor (Homo sapiens, UniProt P25021).
Test [7] addresses T3, Alpha-2A adrenergic receptor (Homo sapiens, UniProt P08913).
T3 sequence (P08913 whole entry): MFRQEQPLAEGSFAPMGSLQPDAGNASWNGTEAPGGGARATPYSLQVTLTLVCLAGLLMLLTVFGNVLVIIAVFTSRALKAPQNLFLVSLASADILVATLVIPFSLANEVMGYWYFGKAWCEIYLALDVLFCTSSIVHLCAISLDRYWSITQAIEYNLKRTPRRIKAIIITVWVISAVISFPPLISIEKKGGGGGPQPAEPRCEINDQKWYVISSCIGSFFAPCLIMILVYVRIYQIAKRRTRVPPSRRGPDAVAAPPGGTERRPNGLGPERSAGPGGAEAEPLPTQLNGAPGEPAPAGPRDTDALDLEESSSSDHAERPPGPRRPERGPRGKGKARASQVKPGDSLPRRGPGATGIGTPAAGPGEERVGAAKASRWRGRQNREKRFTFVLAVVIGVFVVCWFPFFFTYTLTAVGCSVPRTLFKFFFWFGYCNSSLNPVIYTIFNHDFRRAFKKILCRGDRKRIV

In test [8] the target is T4, 5-hydroxytryptamine receptor 1A (Homo sapiens, UniProt P08908).
T4 sequence (P08908 whole entry): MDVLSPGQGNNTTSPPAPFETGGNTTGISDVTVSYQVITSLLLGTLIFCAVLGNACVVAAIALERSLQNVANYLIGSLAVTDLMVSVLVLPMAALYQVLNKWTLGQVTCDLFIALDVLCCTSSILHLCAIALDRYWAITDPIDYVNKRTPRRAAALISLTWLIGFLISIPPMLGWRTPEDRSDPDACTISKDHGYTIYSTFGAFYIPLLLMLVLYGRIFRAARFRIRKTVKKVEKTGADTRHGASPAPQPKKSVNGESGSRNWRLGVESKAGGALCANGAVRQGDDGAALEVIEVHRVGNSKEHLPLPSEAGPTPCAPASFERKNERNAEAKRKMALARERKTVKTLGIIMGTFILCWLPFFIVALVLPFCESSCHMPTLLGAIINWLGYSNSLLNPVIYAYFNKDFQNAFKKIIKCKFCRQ

One may read the AC50 as the midpoint of the concentration-response curve, whichever way the signal moves. High values mean activity only at high concentration, low ones activity at low concentration.
Further: assay procedure not described here.

Sequence of D(1A) dopamine receptor (P21728 whole entry): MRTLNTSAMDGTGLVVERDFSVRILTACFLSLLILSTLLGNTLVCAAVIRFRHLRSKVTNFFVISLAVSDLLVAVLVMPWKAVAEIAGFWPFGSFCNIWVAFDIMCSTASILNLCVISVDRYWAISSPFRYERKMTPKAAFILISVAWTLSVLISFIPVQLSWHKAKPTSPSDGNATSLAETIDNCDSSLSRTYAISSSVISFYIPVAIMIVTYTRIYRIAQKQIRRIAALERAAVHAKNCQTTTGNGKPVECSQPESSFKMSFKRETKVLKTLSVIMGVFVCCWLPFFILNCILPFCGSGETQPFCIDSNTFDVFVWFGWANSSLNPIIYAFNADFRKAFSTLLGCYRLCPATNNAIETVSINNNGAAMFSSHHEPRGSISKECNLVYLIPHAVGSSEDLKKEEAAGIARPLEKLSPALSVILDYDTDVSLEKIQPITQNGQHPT
Sequence of Histamine H2 receptor (P25021 whole entry): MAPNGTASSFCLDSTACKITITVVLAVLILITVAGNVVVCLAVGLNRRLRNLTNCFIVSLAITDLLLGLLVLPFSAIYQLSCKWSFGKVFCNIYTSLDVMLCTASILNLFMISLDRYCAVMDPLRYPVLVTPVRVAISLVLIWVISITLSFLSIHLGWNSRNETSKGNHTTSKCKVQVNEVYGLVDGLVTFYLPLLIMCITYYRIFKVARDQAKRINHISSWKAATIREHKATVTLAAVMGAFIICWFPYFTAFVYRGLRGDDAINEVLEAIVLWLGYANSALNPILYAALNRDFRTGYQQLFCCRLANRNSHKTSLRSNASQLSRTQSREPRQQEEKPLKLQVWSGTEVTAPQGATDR
Sequence of Synaptic vesicular amine transporter (Q01827 whole entry): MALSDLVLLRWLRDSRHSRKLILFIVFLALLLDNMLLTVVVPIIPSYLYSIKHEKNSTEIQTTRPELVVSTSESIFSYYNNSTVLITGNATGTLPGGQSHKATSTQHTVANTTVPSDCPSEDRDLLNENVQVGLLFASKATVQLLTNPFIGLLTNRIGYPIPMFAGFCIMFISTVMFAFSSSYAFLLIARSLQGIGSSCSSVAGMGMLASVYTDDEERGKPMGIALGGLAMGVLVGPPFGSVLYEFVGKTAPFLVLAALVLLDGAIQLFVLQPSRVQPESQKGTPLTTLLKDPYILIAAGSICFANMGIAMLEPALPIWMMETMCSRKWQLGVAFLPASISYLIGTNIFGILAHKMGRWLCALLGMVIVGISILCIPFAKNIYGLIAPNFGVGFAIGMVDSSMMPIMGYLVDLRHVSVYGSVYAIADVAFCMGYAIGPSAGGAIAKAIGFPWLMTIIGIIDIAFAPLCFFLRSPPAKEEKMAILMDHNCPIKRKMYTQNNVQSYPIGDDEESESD
Sequence of 5-hydroxytryptamine receptor 2B (P41595 whole entry): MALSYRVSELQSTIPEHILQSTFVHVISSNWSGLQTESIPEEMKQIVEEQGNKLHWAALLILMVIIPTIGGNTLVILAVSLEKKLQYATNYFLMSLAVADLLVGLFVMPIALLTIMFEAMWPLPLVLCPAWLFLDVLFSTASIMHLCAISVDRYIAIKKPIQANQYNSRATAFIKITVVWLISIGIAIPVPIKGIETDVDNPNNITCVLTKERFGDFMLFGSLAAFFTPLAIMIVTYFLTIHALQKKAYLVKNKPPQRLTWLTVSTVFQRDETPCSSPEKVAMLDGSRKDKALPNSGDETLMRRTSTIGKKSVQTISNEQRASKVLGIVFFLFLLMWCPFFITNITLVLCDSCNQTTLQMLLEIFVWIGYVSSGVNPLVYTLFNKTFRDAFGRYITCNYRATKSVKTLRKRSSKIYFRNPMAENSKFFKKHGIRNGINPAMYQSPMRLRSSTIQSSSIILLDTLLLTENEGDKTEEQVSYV

Take `Cn1cnc2c(F)c(Nc3ccc(Br)cc3F)c(C(=O)NOCCO)cc21` [BINIMETINIB]: the AC50 in test [1], in test [2], in test [3] and in test [4] was over 30 µM each time.
Regarding `NCC1(CC(=O)O)CCCCC1` [GABAPENTIN], the AC50 in test [1] is over 30 µM; in test [5], over 10 µM; in test [6] it was over 10 µM; in test [7], over 10 µM; in test [4], over 30 µM; in test [8], over 10 µM.

These data come from ChEMBL document CHEMBL5291721, “A preclinical secondary pharmacology resource illuminates target-adverse drug reaction associations of marketed drugs” (Nat Commun, 2023).
